The results in this text go back to patent US12214021B2 (CHINA AGRICULTURAL UNIVERSITY, priority 2018, dated 2025).

Experiment [1] deals with osteoblasts. The experiment in a line: proliferation of osteoblasts promoted by LF (MTT method). The conditions noted are these: 1 nM together with LF, FIG. 4. The class given is cell-based. As to the method:
Based on transcriptome data, the inventors verified that LF can promote the high expression of VDR at both the gene and protein levels. In order to confirm the role of this pathway in the promotion of osteoblast proliferation and differentiation by LF, the inventors first designed a VDR siRNA to achieve the purpose of transiently silencing VDR genes. The principle of siRNA is the post-transcriptional gene silencing mechanism that blocks the expression of corresponding gene. 20 μM VDR siRNA was added to osteoblasts, the proliferation rate of osteoblasts promoted by LF was detected by MTT method, and the ALP activity of osteoblasts promoted by LF was detected by enzyme-linked immunoassay.
The inventors first confirmed that LF promotes the proliferation and differentiation of osteoblasts through the regulation of the VDR pathway using the osteoblast model. Since the osteogenic effect of VDR is mainly achieved by vitamin D, in order to simulate the normal physiological environment, the inventors treated osteoblasts with both 1 nM of […] (the active form of vitamin D) and LF, and then studied the proliferation and differentiation of osteoblasts.
(Tetrazolium assays rely on reduction of a dye to a coloured formazan, in cell work by metabolically active cells.)

Experiment [2] has as its system VDR. The experiment in a line: effect of p38 and TGF-β/Smads pathway inhibitors on VDR expression promoted by LF. The class given is cell-based. To be noted: for effect of inhibitor on the expression of VDR promoted by LF in the cytoplasm: FIG. 17A; for effect of inhibitor on the expression of VDR promoted by LF in nucleus: FIG. 17B. As to the method:
In order to verify the mechanism of LF for promoting the high expression of VDR, firstly, inhibitors were used in the cytoplasm to inhibit the extracellular signaling pathway to detect the promotion effect of LF on VDR. The p38 inhibitor SB203580 and the TGF-β/smads pathway inhibitor SB431542 were added to detect the expression of VDR promoted by LF.
Since VDR mainly functions in the nucleus, after inhibiting the pathway using SB203580 and SB431542 inhibitors, the expression of VDR promoted by LF in nucleus was detected.

For the molecule `C=C1/C(=C\C=C2/CCC[C@]3(C)[C@@H]([C@H](C)CCCC(C)(C)O)CC[C@@H]23)C[C@@H](O)C[C@@H]1O` [1.25(OH)2D3, reference compound], in experiment [1], the “effect of the presence of 1.25(OH)2D3 on the osteogenic activity of LF” value is given as “does not affect”. `C[S+]([O-])c1ccc(-c2nc(-c3ccncc3)c(-c3ccc(F)cc3)[nH]2)cc1` (centres unmarked) [SB203580]: in experiment [2], the “effect of inhibitor on the expression of VDR promoted by LF in the cytoplasm” value is “no significant effect” and the “effect of inhibitor on the expression of VDR promoted by LF in nucleus” value is recorded as “no significant effect”.

As for `NC(=O)c1ccc(-c2nc(-c3ccc4c(c3)OCO4)c(-c3ccccn3)[nH]2)cc1` [SB431542], in experiment [2], the “effect of inhibitor on the expression of VDR promoted by LF in the cytoplasm” value is “no significant effect” and the “effect of inhibitor on the expression of VDR promoted by LF in nucleus” value is listed as “no significant effect”.
